In US5120764A, “Inhibitors of lysyl oxidase” (Merrell Dow Pharmaceuticals Inc., priority 1988, dated 1992):
Counter-ions that a name gives are not always drawn.

Each compound was assayed against T1, lysyl oxidase (Bos taurus, UniProt P33072) (assay: Lysyl oxidase inhibition (fluorometric assay, cadaverine substrate, horseradish peroxidase/homovanillic acid)). Settings: lysyl oxidase preparation from bovine aorta, 55° C., 10 minutes, pH 8.2 borate buffer, read-out: IC50 (concentration of test compound required to inhibit the enzyme activity by 50 percent).
T1 sequence (P33072 170-418): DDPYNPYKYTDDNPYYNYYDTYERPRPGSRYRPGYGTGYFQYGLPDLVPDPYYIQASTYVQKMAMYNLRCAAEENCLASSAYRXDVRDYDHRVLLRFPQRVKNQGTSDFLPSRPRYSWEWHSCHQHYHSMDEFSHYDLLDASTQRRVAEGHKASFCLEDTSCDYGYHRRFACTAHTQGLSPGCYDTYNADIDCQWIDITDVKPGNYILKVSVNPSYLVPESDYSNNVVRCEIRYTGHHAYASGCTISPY
Format: biochemical
Description: Lysyl oxidase preparation is obtained from bovine aorta by the procedures modified from M. A. Williams and H. M. Kagan, Anal. Biochem. 149, 430-437 (1985) and H. M. Kagan and K. A. Sullivan, Methods in Enzyml. 82, 637-650 (1982). The aorta is obtained fresh on the day of the enzyme preparation and is maintained at 4° C. for the duration of its use in the experiments. The aorta is ground fine and is homogenized for 90 seconds in buffer (2.5 ml of a buffer consisting of 16 mM potassium phosphate and 1 mM phenylmethylsulfonyl fluoride/g of tissue) with 0.15M NaCl added, then the mixture is centrifuged (20 minutes at 11,000×g). The homogenization followed by centrifugation procedure is repeated with buffer plus 0.15 M NaCl, buffer alone, and buffer plus 1M urea. After homogenization in 1M urea, the mixture is stirred for 1 hour prior to centrifugation. The resulting pellet is homogenized in buffer plus 4M urea, stirred for 18 hours, and centrifuged. The supernatant with lysyl oxidase activity is saved. The tissue is homogenized in buffer plus 4M urea, stirred overnight, and centrifuged twice more. The supernatants with lysyl oxidase activity are saved.
The assay is adopted from that of P. C. Trackman, et al., Anal. Biochem. 113, 336-342 (1981). Each assay consists of two tubes, one that contains 0.2 mM β-aminopropionitrile, BAPN, from the start and one to which BAPN is added to quench the reaction. Lysyl oxidase preparation (0.150 ml), urea (0.300 ml, 4M), buffer (0.930 ml, 200 mM borate at pH =8.2), homovanillic acid (0.020 ml of 50 mM solution), and horseradish peroxidase (0.010 ml of Sigma Type II at 5 mg/ml protein) are incubated for 2 minutes at 55° C. in a test tube. Cadaverine (0.100 ml of 150 mM) and test compound, if any, is added and the incubation continued at 55° C. for an additional 10 minutes. The test tubes containing this mixture are then cooled in a ice bath after adding BAPN to any tubes not containing it. The difference in fluorescence (excitation 315 nm and emission 425 nm) between corresponding tubes that received BAPN at 0 minutes and at 10 minutes is a measure of enzyme activity. A standard curve to determine the amount of cadaverine converted by lysyl oxidase is prepared as follows. Assay mixtures containing BAPN are made up as described and known amounts of hydrogen peroxide are added simultaneously with cadaverine and the fluorescence changes after 10 minutes reaction are determined.
Using this method the lysyl oxidase inhibiting activity expressed as IC50 (inhibitory concentration), that is the concentration of test compound required to inhibit the enzyme activity by 50 percent, was determined for various compounds of this invention.

IC50 [nM] | Structure (SMILES)
1 | C=C=C(CN)CCCCCC [β-Ethenylidene-1-Octanamine Hydrochloride]
10 | C=C=C(CN)c1cccs1 [β-Ethenylidene-2-Thiopheneethanamine-4-Methylbenzenesulfonate]
10 | C=C=C(CN)c1ccc(OC)cc1 [β-Ethenylidene-4-Methoxybenzeneethanamine-4-Methylbenzenesulfonate]
1 | C=C=C(CN)CCc1ccccc1 [β-Ethenylidenebenzenebutanamine Hydrochloride]
1 | C=C=C(CN)CCCc1ccccc1 [β-Ethenylidenebenzenepentanamine Hydrochloride]
10 | C=C=C(CN)c1cc2ccccc2s1 [β-Ethylenylidene-Benzo[β]Thiophene-2-Ethanamine Hydrochloride]
